Reference: the supplement of paper PMC10307832

Key:
Experiment in all cases: relative viability (nuclei count vs DMSO), 5 days (fraction); higher = more cells survive
BAM7 = compound: CCOC1=CC=CC=C1N=NC2=C(NN(C2=O)C3=NC(=CS3)C4=CC=CC=C4)C [BAM7]
Outline: (§1)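 Following overnight incubation at 37 °C, lung cancer cell lines in 1536-well plates were pinned with five library-drug doses (not always all listed) in √10 steps on vehicle-anchored plates. The cells then spent 5 days without medium change before a combined fix, permeabilisation and Hoechst stain, 4× imaging and MetaXpress nuclear counts. Viability is the treated-to-vehicle ratio of nuclei, taken as the median across plates. Only plates with control CV below 25% and at least one doubling passed.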

[1] = compound: CCn1c(-c2nonc2N)nc2c(C#CC(C)(C)O)ncc(OC[C@H]3CCCNC3)c21
Outline: as §1

BAM7 + Alpelisib = compound: CCOC1=CC=CC=C1N=NC2=C(NN(C2=O)C3=NC(=CS3)C4=CC=CC=C4)C [BAM7] + Cc1nc(NC(=O)N2CCC[C@H]2C(N)=O)sc1-c1ccnc(C(C)(C)C(F)(F)F)c1 [Alpelisib] (partner 2 µM)
Outline: (§2)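 Relative viability is defined as nuclei in treated wells over nuclei in vehicle wells. Duplicate plates were run and medians reported. Lung cancer cell lines in 1536-well plates were dosed by pin tool one day after seeding, with one drug or with a fixed anchor-drug dose plus five library-drug doses (not always all listed) in √10 steps, and nuclei were counted after 5 days.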

[2] = compound: CCn1c(-c2nonc2N)nc2c(C#CC(C)(C)O)ncc(OC[C@H]3CCCNC3)c21 + CC(C)C[C@H](NC(=O)[C@H](Cc1ccccc1)NC(=O)c1cnccn1)B(O)O [Bortezomib] (partner 0.002 µM)
Outline: as §2

Cell Line | relative viability (BAM7; 0.5 µM) | relative viability (BAM7; 5 µM) | relative viability (BAM7; 15.81 µM) | relative viability (BAM7; 50 µM) | relative viability ([1]; 0.01 µM) | relative viability ([1]; 0.03162 µM) | relative viability ([1]; 0.1 µM) | relative viability ([1]; 0.3162 µM) | relative viability ([1]; 1 µM) | relative viability (BAM7 + Alpelisib; first compound 0.5 µM) | relative viability (BAM7 + Alpelisib; first compound 5 µM) | relative viability (BAM7 + Alpelisib; first compound 15.81 µM) | relative viability (BAM7 + Alpelisib; first compound 50 µM) | relative viability ([2]; first compound 0.01 µM) | relative viability ([2]; first compound 0.03162 µM) | relative viability ([2]; first compound 0.1 µM) | relative viability ([2]; first compound 0.3162 µM) | relative viability ([2]; first compound 1 µM)
SK-LU-1 | 1.04 | 1.24 | 0.962 | 1.13 | 1.06 | 1.09 | 0.88 | 0.953 | 0.966 | 0.703 | 1.1 | 0.955 | 1.09 | 1.08 | 1.08 | 0.707 | 0.992 | 1.22
NCI-H1299 | 1.01 | 1.06 | 1.01 | 1.01 | 0.984 | 1.05 | 1.01 | 1.01 | 1.04 | 1.06 | 1.1 | 1.03 | 0.992 | 1.02 | 1.04 | 0.992 | 0.988 | 1
NCI-H2009 | 1.04 | 1.12 | 0.994 | 1.04 | 1 | 1 | 1.02 | 0.95 | 0.932 | 1.21 | 1.15 | 1.1 | 1.15 | 0.997 | 0.944 | 1.05 | 1.03 | 0.958
LOU-NH91 | 0.974 | 1.06 | 0.939 | 0.973 | 1 | 0.924 | 0.989 | 0.9 | 0.888 | 0.753 | 0.728 | 0.629 | 0.684 | 0.57 | 0.344 | 0.481 | 0.448 | 0.47
NCI-H2405 | 0.989 | 1.13 | 1.03 | 1.08 | 1.05 | 0.934 | 0.973 | 0.969 | 0.993 | 0.862 | 0.773 | 0.684 | 0.839 | 0.982 | 0.897 | 0.91 | 0.929 | 0.967
LCLC-97TM1 | 1.12 | 1.12 | 1.09 | 1.06 | 0.989 | 1.01 | 1.16 | 0.854 | 0.944 | 0.303 | 0.235 | 0.235 | 0.316 | 0.756 | 0.383 | 0.794 | 0.459 | 0.522
NCI-H596 | 0.965 | 1.08 | 0.957 | 1.07 | 0.947 | 0.962 | 0.752 | 0.936 | 1.06 | 0.461 | 0.463 | 0.425 | 0.492 | 1.02 | 0.956 | 0.969 | 1.38 | 0.999
NCI-H727 | 0.962 | 0.811 | 0.881 | 0.937 | 1.02 | 0.866 | 0.871 | 0.848 | 0.973 | 0.599 | 0.576 | 0.57 | 0.663 | 0.782 | 0.747 | 0.999 | 0.613 | 0.791
H3255 | 0.99 | 1.02 | 0.963 | 0.995 | 0.924 | 0.949 | 0.998 | 0.856 | 0.904 | 0.691 | 0.673 | 0.649 | 0.734 | 0.634 | 0.679 | 0.83 | 0.788 | 0.688
NCI-H1437 | 0.991 | 1.02 | 0.928 | 1.01 | 0.957 | 0.974 | 1.05 | 0.935 | 1.1 | 1.07 | 1 | 0.911 | 0.909 | 0.616 | 0.538 | 0.593 | 0.357 | 0.483
LU99A | 1.09 | 1.02 | 0.979 | 1.07 | 1.07 | 1.13 | 0.889 | 0.854 | 0.922 | 0.588 | 0.489 | 0.532 | 0.597 | 1.21 | 1.29 | 1.04 | 1.04 | 1.08
HCC-827 | 1.04 | 1.05 | 1.06 | 1.03 | 1.06 | 1.03 | 1 | 0.986 | 0.99 | 1.03 | 0.97 | 1.01 | 1 | 1.07 | 1.04 | 1.09 | 0.988 | 1.02
HCC-366 | 1.04 | 1.04 | 1.03 | 1.02 | 0.993 | 1.05 | 0.805 | 0.998 | 0.99 | 0.403 | 0.318 | 0.324 | 0.322 | 0.989 | 1.05 | 0.913 | 1.01 | 1.12
BEN | 1.04 | 1.05 | 1.11 | 0.981 | 0.988 | 1.03 | 0.735 | 0.935 | 0.962 | 1.11 | 0.948 | 0.903 | 1.08 | 0.713 | 0.803 | 0.661 | 0.73 | 0.696
NCI-H23 | 1.21 | 1.06 | 1.04 | 1.06 | 0.918 | 0.939 | 0.878 | 0.902 | 0.852 | 0.743 | 0.782 | 0.656 | 0.723 | 0.974 | 1.06 | 0.913 | 0.861 | 1.13
201T | 0.918 | 0.865 | 0.793 | 0.861 | 0.95 | 0.987 | 0.959 | 0.952 | 0.986 | 1.05 | 1.05 | 0.825 | 1.01 | 1.1 | 1.14 | 1.1 | 1.07 | 1.09
NCI-H460 | 1.02 | 0.989 | 0.895 | 0.969 | 0.977 | 0.983 | 0.983 | 0.998 | 0.949 | 0.514 | 0.468 | 0.473 | 0.403 | 1.01 | 1.26 | 1.13 | 1.04 | 1.12
NCI-H661 | 0.984 | 1.03 | 0.965 | 1.03 | 1.01 | 1.03 | 0.976 | 1.01 | 0.972 | 0.736 | 0.7 | 0.699 | 0.699 | 0.883 | 0.75 | 0.739 | 0.972 | 0.855
HCC-15 | 1.01 | 1.01 | 0.97 | 0.927 | 0.959 | 1.02 | 1.04 | 0.952 | 0.914 | 0.907 | 0.923 | 0.883 | 0.853 | 0.988 | 1.06 | 1.01 | 0.925 | 0.952
NCI-H1563 | 0.967 | 1.04 | 0.995 | 1.02 | 1.01 | 0.984 | 0.96 | 0.901 | 0.89 | 0.991 | 0.864 | 0.864 | 0.929 | 0.963 | 0.842 | 0.752 | 0.829 | 0.796
ABC-1 | 0.919 | 1.05 | 0.855 | 1.14 | 0.934 | 0.869 | 0.864 | 0.768 | 0.696 | 1.37 | 0.968 | 0.851 | 0.914 | 0.292 | 0.299 | 0.301 | 0.332 | 0.294
LCLC-103H | 0.966 | 1.04 | 0.983 | 1.04 | 0.964 | 0.988 | 0.929 | 0.938 | 1.09 | 0.998 | 0.837 | 1.08 | 0.984 | 1.02 | 1.12 | 1.08 | 1.07 | 0.937
NCI-H441 | 1.16 | 1.06 | 1.1 | 1.44 | 0.927 | 1.05 | 1.04 | 0.948 | 0.99 | 0.809 | 0.932 | 0.793 | 0.682 | 0.47 | 0.451 | 0.459 | 0.288 | 0.449
EPLC-272H | 0.989 | 0.95 | 0.95 | 0.995 | 0.874 | 0.936 | 0.869 | 0.91 | 0.87 | 1.08 | 0.802 | 0.877 | 0.831 | 0.859 | 0.957 | 0.894 | 0.96 | 0.847
